Reference: US20040116336A1, “Peptide derivatives” (priority 2002, published 2004)
Read-outs that look alike come from different tables or passages of the source. Starred links: 1 amine or outer side, 2 acyl side, 3 side chain; linkers in the order of their positions; H or OH if unused. Non-standard residues stand in square brackets, D forms with d. Residues, ends and D or L forms follow the SMILES beside them. X1 = O=C([C@H](Cc1ccc2ccc3cccc4ccc1c2c34)N[*:1])[*:2]; Phe(4-Cl) = N[C@@H](Cc1ccc(Cl)cc1)C(=O)O; Lys(Me2) = CN(C)CCCC[C@H](N)C(=O)O; Cha = N[C@@H](CC1CCCCC1)C(=O)O; NMeA = CN[C@@H](C)C(=O)O

What was measured:
APJ [1] = target: T1, APJ (Homo sapiens, UniProt P35414); assay: Inhibitory activity on forskolin-stimulated cAMP production in CHO-A10 clone 6 cells; assay type: cell-based
T1 construct: expressed in transfected cells; host or cells: CHO (CHO-A10; clone 6 for the cAMP assay)
T1 sequence (P35414 1-380): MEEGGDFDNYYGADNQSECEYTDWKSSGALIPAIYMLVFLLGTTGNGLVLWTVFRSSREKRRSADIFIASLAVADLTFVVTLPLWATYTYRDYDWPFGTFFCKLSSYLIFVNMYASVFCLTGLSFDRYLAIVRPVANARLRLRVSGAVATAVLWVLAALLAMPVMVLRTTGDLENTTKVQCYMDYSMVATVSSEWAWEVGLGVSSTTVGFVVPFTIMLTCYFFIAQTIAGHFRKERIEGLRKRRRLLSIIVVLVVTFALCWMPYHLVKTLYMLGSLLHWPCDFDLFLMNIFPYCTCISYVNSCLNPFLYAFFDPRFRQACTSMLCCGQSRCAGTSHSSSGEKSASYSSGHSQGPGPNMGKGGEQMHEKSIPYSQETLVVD
Experimental: Measurement of an Inhibitory Activity on Forskolin-Stimulated cAMP Production
Hanks' balanced salt solution (HBSS) containing 0.2 mM 3-isobutyl-1-methylxanthine (IBMX) and 0.05% bovine serum albumin was prepared as an assay buffer, and each well was washed twice with 500 μl assay buffer and pre-incubated at 37° C. for 30 minutes. Further, each well was washed once with 500 μl assay buffer, and a sample dissolved in the assay buffer containing 1 μM forskolin was added at a volume of 500 μl/well and incubated at 37° C. for 30 minutes. Wells incubated with the assay buffer not containing forskolin were prepared in the same manner in order to determine the basal level of cellular cAMP production, while wells incubated with the assay buffer containing forskolin were also prepared in order to determine the maximum level of cAMP production stimulated with forskolin. After incubation was finished, each well was washed once with 500 μl assay buffer, and 500 μl lysis buffer 1B attached to a cAMP EIA system from Amersham was added to each well, to extract cAMP. According to the protocol of the kit, 100 μl of each extract was used to determine the level of cAMP. For the inhibitory activity of the sample on cAMP production, the difference (inhibited cAMP production) between the maximum level and the level of cAMP in the sample-containing wells was determined, and the inhibitory activity was expressed as percentage relative to the increased level of cAMP production stimulated with forskolin (that is, the difference between the maximum level and basal level), and from this dose-reaction curve, the EC50 was determined.

APJ [2] = target: T1, APJ; assay: Receptor binding assay-2 (compound in Reference Example 2 used)
Experimental: This product was mixed with an equal volume of an assay buffer (50 mM Tris-HCl/pH 7.5, 5 mM EDTA, 0.5 mM PMSF, 20 μg/ml leupeptin, 0.1 μg/ml pepstatin A, 4 μg/ml E-64 (Peptide Research Laboratory, Co.), 0.1% bovine serum albumin) and stored at −30° C. before use.
CHO-A10 cells were cultured, recovered with PBS containing 5 mM EDTA from a culture vessel, and suspended in the above-mentioned assay buffer not containing bovine serum albumin. The cells were homogenized 3 times at 12,000 rpm for 15 seconds by a Polytron homogenizer (manufactured by Kinematica Inc.) and then centrifuged (1000×g, 4° C., 10 minutes), and the supernatant was recovered. The precipitates were subjected again to the same procedure as above, and the respective supernatants were combined and centrifuged at 100,000×g, 4° C. for 1 hour, to recover precipitates (membrane fraction). The membrane fraction was suspended again in a small amount of the buffer, homogenized with a Teflon homogenizer and stored at −80° C. before use.
Binding assay was carried out under the following conditions. […] Measurement of non-specific binding was carried out using a well containing 1 μM unlabeled compound in place of the test sample. After the incubation was finished, a cell harvester (Packard) adapted to 96 wells and a filter unit (GF/C, Packard) were used for separation thereby capturing the membrane fraction on the filter. After the filter was sufficiently dried, Microcinti 0 (Packard) was added thereto, and using Top Count (Packard), the amount of the labeled material captured together with the membrane fraction on the filter was measured.

[3] = compound in Reference Example 2 used as ligand, read-out: IC50

SMILES | EC50 (APJ [1]; read-out: EC50) | IC50 (APJ [2]; [3]) | EC50 (APJ [1]) | IC50 (APJ [2])
CSCC[C@H](NC(=O)[C@H](C)N(C)C(=O)CNC(=O)[C@H](CCCNC(=N)N)NC(=O)[C@H](C)NC(=O)[C@H](CO)NC(=O)[C@H](CC(C)C)NC(=O)[C@H](CCCNC(=N)N)NC(=O)[C@@H]1CCCN1C(=O)[C@@H](N)CCCNC(=N)N)C(=O)N1CCC[C@H]1C(=O)N[C@@H](Cc1ccc(Cl)cc1)C(=O)O [Compound in Ex. 55] (H-RPRLSARG[NMeA]MP[Phe(4-Cl)]-OH; N-terminus and C-terminus assumed) | 0.27 nM | 0.09 nM |  | 
CSCC[C@H](NC(=O)[C@@H]1CCCN1C(=O)CNC(=O)[C@H](CCCCN)NC(=O)[C@H](Cc1c[nH]cn1)NC(=O)[C@H](CO)NC(=O)[C@H](CC(C)C)NC(=O)[C@H](CCCNC(=N)N)NC(=O)[C@@H]1CCCN1C(=O)[C@@H](N)CCCNC(=N)N)C(=O)N[C@@H](Cc1ccc(Cl)cc1)C(=O)O [Compound in Ex. 28] (H-RPRLSHKGPM[Phe(4-Cl)]-OH; N-terminus and C-terminus assumed) | 0.16 nM | 0.17 nM |  | 
CSCC[C@H](NC(=O)[C@@H]1CCCN1C(=O)CNC(=O)[C@H](CCCNC(=N)N)NC(=O)[C@H](C)NC(=O)[C@H](CO)NC(=O)[C@H](CC(C)C)NC(=O)[C@H](CCCNC(=N)N)NC(=O)[C@@H]1CCCN1C(=O)[C@H](CCCNC(=N)N)NC(=O)[C@H](CCC(N)=O)NC(=O)[C@H](CCCNC(=N)N)NC(=O)[C@@H](N)CCCNC(=N)N)C(=O)N1CCC[C@H]1C(=O)N[C@@H](Cc1ccccc1)C(=O)O [Compound in Ex. 17] | 0.39 nM | 0.036 nM |  | 
CC(C)C[C@H](NC(=O)[C@H](CCCNC(=N)N)NC(=O)[C@@H]1CCCN1C(=O)[C@@H](N)CCCNC(=N)N)C(=O)N[C@@H](CO)C(=O)N[C@@H](C)C(=O)N[C@@H](CCCNC(=N)N)C(=O)NCC(=O)N1CCC[C@H]1C(=O)N[C@@H](C)C(=O)N1CCC[C@H]1C(=O)N[C@@H](Cc1ccc(Cl)cc1)C(=O)O [Compound in Ex. 53] (H-RPRLSARGPAP[Phe(4-Cl)]-OH; N-terminus and C-terminus assumed) | 0.37 nM | 0.064 nM |  | 
CSCC[C@H](NC(=O)[C@@H]1CCCN1C(=O)CNC(=O)[C@H](CCCCN)NC(=O)[C@H](Cc1c[nH]cn1)NC(=O)[C@H](CO)NC(=O)[C@H](CC(C)C)NC(=O)[C@H](CCCNC(=N)N)NC(=O)[C@@H]1CCCN1C(=O)[C@@H](N)CCCNC(=N)N)C(=O)N[C@@H](CC1CCCCC1)C(=O)O [Compound in Ex. 36] (H-RPRLSHKGPM[Cha]-OH; N-terminus and C-terminus assumed) | 0.22 nM | 0.51 nM |  | 
CC(C)C[C@H](NC(=O)[C@H](C)NC(=O)[C@@H]1CCCN1C(=O)[C@@H](N)CCCNC(=N)N)C(=O)N[C@@H](CO)C(=O)N[C@@H](Cc1c[nH]cn1)C(=O)N[C@@H](CCCCN)C(=O)NCC(=O)N1CCC[C@H]1C(=O)N[C@@H](CC1CCCCC1)C(=O)N1CCC[C@H]1C(=O)N[C@@H](Cc1ccc(Cl)cc1)C(=O)O [Compound in Ex. 58] (H-RPALSHKGP[Cha]P[Phe(4-Cl)]-OH; N-terminus and C-terminus assumed) | 0.41 nM | 0.15 nM |  | 
CSCC[C@H](NC(=O)[C@@H]1CCCN1C(=O)CNC(=O)[C@H](CCCCN)NC(=O)[C@H](C)NC(=O)[C@H](CO)NC(=O)[C@H](CC(C)C)NC(=O)[C@H](CCCNC(=N)N)NC(=O)[C@@H]1CCCN1C(=O)[C@H](CCCNC(=N)N)NC(=O)[C@@H]1CCC(=O)N1)C(=O)N1CCC[C@H]1C(=O)N[C@@H](Cc1ccccc1)C(=O)O [Compound in Ex. 29] | 0.22 nM | 0.21 nM |  | 
CC(C)C[C@H](NC(=O)[C@H](CCCNC(=N)N)NC(=O)[C@@H]1CCCN1C(=O)[C@@H](N)CCCNC(=N)N)C(=O)N[C@@H](CO)C(=O)N[C@@H](Cc1c[nH]cn1)C(=O)N[C@@H](C)C(=O)NCC(=O)N1CCC[C@H]1C(=O)N[C@@H](CC1CCCCC1)C(=O)N1CCC[C@H]1C(=O)N[C@@H](Cc1ccc(Cl)cc1)C(=O)O [Compound in Ex. 56] (H-RPRLSHAGP[Cha]P[Phe(4-Cl)]-OH; N-terminus and C-terminus assumed) | 0.58 nM | 0.22 nM |  | 
CC(C)C[C@H](NC(=O)[C@H](CCCNC(=N)N)NC(=O)[C@@H]1CCCN1C(=O)[C@@H](N)CCCNC(=N)N)C(=O)N[C@@H](Cc1ccccc1)C(=O)N[C@@H](Cc1c[nH]cn1)C(=O)N[C@@H](CCCCN)C(=O)NCC(=O)N1CCC[C@H]1C(=O)N[C@@H](CC1CCCCC1)C(=O)N[C@@H](Cc1ccc(Cl)cc1)C(=O)O [Compound in Ex. 37] (H-RPRLFHKGP[Cha][Phe(4-Cl)]-OH; N-terminus and C-terminus assumed) | 0.43 nM | 0.54 nM |  | 
CC(C)C[C@H](NC(=O)[C@H](CCCNC(=N)N)NC(=O)[C@@H]1CCCN1C(=O)[C@H](CCCNC(=N)N)NC(=O)[C@H](CCC(N)=O)NC(=O)[C@H](CCCNC(=N)N)NC(=O)[C@@H](N)CCCNC(=N)N)C(=O)N[C@@H](CO)C(=O)N[C@@H](C)C(=O)N[C@@H](CCCNC(=N)N)C(=O)NCC(=O)N(C)C [Compound in Ex. 51] (H-RRQRPRLSARG-NMe2) | 0.49 nM | 0.16 nM |  | 
CSCC[C@H](NC(=O)[C@@H]1CCCN1C(=O)CNC(=O)[C@H](CCCCN)NC(=O)[C@H](CC(C)C)NC(=O)[C@H](CO)NC(=O)[C@H](CC(C)C)NC(=O)[C@H](CCCNC(=N)N)NC(=O)[C@@H]1CCCN1C(=O)[C@H](CCCNC(=N)N)NC(=O)[C@@H]1CCC(=O)N1)C(=O)N1CCC[C@H]1C(=O)N[C@@H](Cc1ccccc1)C(=O)O [Compound in Ex. 38] | 0.16 nM | 0.59 nM |  | 
CSCC[C@H](NC(=O)[C@@H]1CCCN1C(=O)CNC(=O)[C@H](CCCNC(=N)N)NC(=O)[C@H](C)NC(=O)[C@H](CO)NC(=O)[C@H](CC(C)C)NC(=O)[C@H](CCCNC(=N)N)NC(=O)[C@@H]1CCCN1C(=O)[C@H](CCCNC(=N)N)NC(=O)[C@H](CCC(N)=O)NC(=O)[C@H](CCCNC(=N)N)NC(=O)[C@@H](N)CCCNC(=N)N)C(=O)N1CCC[C@H]1C(=O)N[C@@H](Cc1ccc(Cl)cc1)C(N)=O [Compound in Ex. 59] | 0.32 nM | 0.18 nM |  | 
CC(C)C[C@H](NC(=O)[C@H](CCCNC(=N)N)NC(=O)[C@@H]1CCCN1C(=O)[C@@H](N)CCCNC(=N)N)C(=O)N[C@@H](CO)C(=O)N[C@@H](C)C(=O)N[C@@H](CCCNC(=N)N)C(=O)NCC(=O)N1CCC[C@H]1C(=O)N[C@@H](CC1CCCCC1)C(=O)N[C@@H](Cc1ccc2ccc3cccc4ccc1c2c34)C(=O)O [Compound in Ex. 60] (H-RPRLSARGP[Cha][X1]-OH) |  |  | 1.1 nM | 0.8 nM
CSCC[C@H](NC(=O)[C@@H]1CCCN1C(=O)CNC(=O)[C@H](CCCNC(=N)N)NC(=O)[C@H](C)NC(=O)[C@H](CO)NC(=O)[C@H](CC(C)C)NC(=O)[C@H](CCCCN(C)C)NC(=O)[C@@H]1CCCN1C(=O)[C@@H](N)CCCNC(=N)N)C(=O)N1CCC[C@H]1C(=O)N[C@@H](Cc1ccccc1)C(=O)O [Compound in Ex. 63] (H-RP[Lys(Me2)]LSARGPMPF-OH; N-terminus and C-terminus assumed) | 0.33 nM | 0.074 nM |  | 
CC(C)C[C@H](NC(=O)[C@H](CCCNC(=N)N)NC(=O)[C@@H]1CCCN1C(=O)[C@H](CCCNC(=N)N)NC(=O)[C@H](CCC(N)=O)NC(=O)[C@H](CCCNC(=N)N)NC(=O)[C@@H](N)CCCNC(=N)N)C(=O)N[C@@H](CO)C(=O)N[C@@H](Cc1c[nH]cn1)C(=O)N[C@@H](CCCCN)C(=O)NCC(=O)N1CCC[C@H]1C(=O)N[C@@H](CC[S+](C)[O-])C(=O)O (stereo partly drawn) [Compound in Ex. 20] | 0.48 nM | 0.62 nM |  | 
